Data on one compound can be found in ChEMBL document CHEMBL5728694, “Inhibitors of hepatitis C virus replication” (2021).

Structures are written as SMILES. pEC50: −log10 of the molar value.

The nature of the assay: Measuring Compound Inhibitory Potency: Measurement of inhibition by compounds was performed using the HCV replicon system. Several different replicons encoding different HCV genotypes or mutations were used. In addition, potency measurements were made using different formats of the replicon assay, including different ways of measurements and different plating formats. See Jan M. Vrolijk et al., A replicons-based bioassay for the measurement of interferons in patients with chronic hepatitis C, 110 J. VIROLOGICAL METHODS 201 (2003); Steven S. Carroll et al., Inhibition of Hepatitis C Virus RNA Replication by 2′-Modified Nucleoside Analogs, 278(14) J. BIOLOGICAL CHEMISTRY 11979 (2003). However, the underlying principles are common to all of these determinations, and are outlined below.Stable neomycin phosphotransferase encoding replicon-harboring cell lines were used, so all cell lines were maintained under G418 selection prior to the assay. In some cases, the cell lines encoded a luciferase:Neor fusion and could be assayed either directly by determination of RNA copy number, or indirectly through measurement of the luciferase activity.To initiate an assay, replicon cells were plated in the presence of a dilution series of test compound in the absence of G418. Typically, the assays were performed in a 96-well plate format for manual operation, or a 384-well plate in an automated assay. […]. For orientation: Replicon systems follow genome replication, usually without infectious particles.

As to `COC(=O)N[C@H](C(=O)N1CCC[C@H]1c1ncc(-c2ccc3oc(-c4ccc(-c5cnc([C@@H]6CCCN6C(=O)[C@@H](NC(=O)OC)C(C)C)[nH]5)c(F)c4)cc3c2)[nH]1)C(C)C`, the pEC50 (in general, the negative decadic logarithm of the EC50, by convention in mol/L) was 11.40.
